In ChEMBL document CHEMBL4330135, “Discovery of 2-phenylthiazole-4-carboxylic acid, a novel and potent scaffold as xanthine oxidase inhibitors” (Bioorg Med Chem Lett, 2019) one finds Activity, IC50 and inhibition data, which are given here for 9 compounds.

The source made the active and inactive calls. The rule behind the calls is not given here.

T1 sequence (P80457 whole entry): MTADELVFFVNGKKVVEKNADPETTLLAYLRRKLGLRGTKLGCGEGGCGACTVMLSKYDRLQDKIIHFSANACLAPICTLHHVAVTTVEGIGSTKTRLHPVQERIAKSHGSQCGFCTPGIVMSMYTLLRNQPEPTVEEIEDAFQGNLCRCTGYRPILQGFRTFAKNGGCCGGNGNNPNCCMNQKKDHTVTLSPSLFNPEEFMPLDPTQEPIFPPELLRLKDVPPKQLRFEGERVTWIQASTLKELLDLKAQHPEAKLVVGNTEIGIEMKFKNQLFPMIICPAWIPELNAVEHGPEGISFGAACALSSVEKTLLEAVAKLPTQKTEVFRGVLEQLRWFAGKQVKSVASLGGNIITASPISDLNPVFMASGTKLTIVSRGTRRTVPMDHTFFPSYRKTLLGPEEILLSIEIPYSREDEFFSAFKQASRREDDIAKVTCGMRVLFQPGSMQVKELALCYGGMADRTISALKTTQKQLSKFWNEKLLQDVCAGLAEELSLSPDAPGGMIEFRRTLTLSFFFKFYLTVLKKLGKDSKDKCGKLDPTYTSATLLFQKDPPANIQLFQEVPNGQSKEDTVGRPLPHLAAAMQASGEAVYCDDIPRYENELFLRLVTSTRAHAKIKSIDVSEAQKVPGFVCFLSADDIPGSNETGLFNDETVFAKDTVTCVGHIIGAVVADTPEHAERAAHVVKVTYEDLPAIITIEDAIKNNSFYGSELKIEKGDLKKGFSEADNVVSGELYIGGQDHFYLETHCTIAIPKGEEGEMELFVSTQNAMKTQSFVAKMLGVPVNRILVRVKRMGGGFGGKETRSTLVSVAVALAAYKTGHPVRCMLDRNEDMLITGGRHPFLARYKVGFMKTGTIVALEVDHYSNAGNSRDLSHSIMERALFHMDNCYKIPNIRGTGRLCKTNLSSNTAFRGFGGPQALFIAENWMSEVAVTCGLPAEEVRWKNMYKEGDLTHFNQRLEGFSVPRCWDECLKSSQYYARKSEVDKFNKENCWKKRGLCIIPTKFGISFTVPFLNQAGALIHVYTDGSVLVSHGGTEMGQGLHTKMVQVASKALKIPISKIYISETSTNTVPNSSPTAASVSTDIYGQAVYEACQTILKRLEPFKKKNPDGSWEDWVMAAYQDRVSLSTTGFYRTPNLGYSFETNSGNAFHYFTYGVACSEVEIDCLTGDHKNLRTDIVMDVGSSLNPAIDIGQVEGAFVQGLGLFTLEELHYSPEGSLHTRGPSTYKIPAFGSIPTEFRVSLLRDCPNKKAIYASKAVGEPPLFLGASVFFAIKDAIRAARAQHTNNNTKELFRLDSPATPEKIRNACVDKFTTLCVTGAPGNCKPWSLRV

In one test the test system is Mus musculus. As to the kind of experiment: Hypouricemic effect in ICR mouse model of potassium oxonate and hypoxanthine-induced acute hyperuricemia assessed as reduction in serum uric acids level at 5 mg/kg, po dosed 1 hr after potassium oxonate and hypoxanthine challenge and measured after 1 hr. Format: functional, organism-based.
Conditions: not given
Take `Cc1nc(-c2ccc(OCC(C)C)c(C#N)c2)sc1C(=O)O` [FEBUXOSTAT]: the result was Active.

Another test concerns the target T1, Xanthine dehydrogenase/oxidase (Bos taurus, UniProt P80457). Kind of test: Inhibition of bovine milk xanthine oxidase using xanthine as substrate preincubated for 3 mins followed by substrate addition and measured at 1 min for 10 mins.
Conditions: not given
Consider `CC(C)COc1ccc(-c2nc(C(=O)O)cs2)cc1[N+](=O)[O-]`, for which the IC50 worked out at 48.6 nM.
On the same count and under the same terms, in the case of `Cc1nc(-c2ccc(OCC(C)C)c([N+](=O)[O-])c2)sc1C(=O)O` it was 33.4 nM.

Another test relates to Mus musculus. As to the kind of experiment: Hypouricemic effect in ICR mouse model of potassium oxonate and hypoxanthine-induced acute hyperuricemia assessed as reduction in serum uric acids level at 20 mg/kg, po dosed 1 hr after potassium oxonate and hypoxanthine challenge and measured after 1 hr. Type of test: functional, organism-based.
Conditions: not given
Turning to `CC(C)COc1ccc(-c2nc(C(=O)O)cs2)cc1[N+](=O)[O-]`, the result was Active.
On the same count and under the same terms, the same measure for `Cc1nc(-c2ccc(OCC(C)C)c([N+](=O)[O-])c2)sc1C(=O)O`: “Active”.

The target in a further test is T1, Xanthine dehydrogenase/oxidase. As to the kind of experiment: Inhibition of bovine milk xanthine oxidase at 10 uM using xanthine as substrate preincubated for 3 mins followed by substrate addition and measured at 1 min for 10 mins relative to control. The following applies: cattle.
`Cc1nc(-c2ccc(OCC(C)C)c(C#N)c2)sc1C(=O)O` [FEBUXOSTAT] registered an inhibition at 10 µM of 98.5%.
Consider `O=C(O)c1csc(-c2ccccc2)n1`, for which 10 µM produced 32.8% inhibition.
Still for that read-out and setting: the same measure for `O=C(O)c1nc(-c2ccccc2)cs1`: 18.6%; for `Cc1nc(-c2ccccc2)sc1C(=O)O`: 37.6%; for `O=C(O)c1cc(-c2ccccc2)on1`: 4.2%.
The same measure, in the same setting: in the case of `Cc1cc(C(=O)O)nn1-c1ccccc1` it was 13.9%; in that of `Cc1nc(-c2ccccc2)oc1C(=O)O`, 12.5%.
